Reference: patent US6337316B1, “Pharmaceutical compositions thereof, and methods of using same” (Applied Research Systems ARS Holding N.V., priority 1997, dated 2002)
Entries after “also recorded” stand apart in the source; their conditions may differ. Peptide text beside a SMILES is read from it.

Experiments:
[1] = system: lymphocyte proliferation in the human MLR; assay type: cell-based
Method: Whole blood from donors was obtained from Interstate Blood Bank, Memphis, Tenn. Blood specimens were handled in a biosafety level 2 containment facility as recommended for potentially infectious blood specimens in the CDC/NIH manual Biosafety in Microbiological and Biomedical Laboratories; 3rd edition, 1993, page 10. Peripheral blood mononuclear cells (PBMC) were separated from red blood cells and granulocytes by ficoll-hypaque purification. Whole peripheral blood was diluted 1:2 in PBS and 30 ml was overlayed onto 15 ml of ficoll-hypaque in 50 ml polypropylene tubes. The tubes were spun at 400×g for 30 min at 25° C. Following centrifugation, the interface between the upper plasma layer and the lower ficoll layer was collected, cells washed in RPMI-1640 2×, and viable counts determined using trypan blue. Cells to be used as responders in the assay were stored on ice until mitomycin C treatment of stimulator cells was completed.
PBMC, isolated as described above, to be used as stimulators in the assay were adjusted to 2-4×10^6 cells/ml in complete medium (RPMI 1640 containing 10% heat-inactivated human AB serum, 2 mM glutamine, 50 μM 2-mercaptoethanol and 100 U/ml penicillin-100 μg/ml streptomycin), and treated with mitomycin C (25 μg/ml) for 30 min in a 37° C. water bath. Following treatment, cells were washed with S volumes of complete medium 3×, and viable counts determine using trypan blue. To set up autologous stimulation controls some responder cells were also treated with mitomycin C as mentioned above.
Purified CTLA-4Ig fusion protein was produced, as described in Steurer et al. 1995, from a NS-1 cell line kindly donated by Dr. T. Strom (Beth Israel Hospital, Boston, Mass.) as a 1 mg/ml solution in sterile PBS. The protein was stored frozen at −80° C. Upon thawing, the aliquot was stored at 4° C. Purified peptides were lyophilized according to known procedures. Peptides were reconstituted in sterile PBS, pH 7.4 at 2 mM concentration, aliquoted in microfuge cubes and stored frozen at −20° C. For the assay, an aliquot of the peptide was thawed and diluted to 200 μM in complete medium.
For the one-way allogeneic mixed lymphocyte response (MLR) assay, responder cells were plated at 10^6 cells/well, and stimulator cells at 5×10^4 cells/well in 96-well round bottom plates. Cells were incubated with serial dilutions of the anti-CD4 Ab Leu 3A (1 μg/ml-0.06 μg/ml) in triplicate, or an isotype-matched control Ab. Cyclosporin A at 1 μg/ml was used as an additional control.
CTLA-4 Ig was serially diluted an.4 tested from 10 μg/ml to 0.15 μg/ml. Peptides were tested either directly or in the presence of a constant spiked-in dose of CTLA-4 Ig at 0.5 μg/ml. The plates were incubated at 37° C. in a humidified 5% CO2 atmosphere for 7 days.
Proliferation of the cells was determined by pulsing the wells with ^3H-Tdr (1 μCi/well) for the last 18 h of the assay. Plates were harvested using a Tomtec -late harvester and the counts incorporated determined using a Wallac microbetaplate plus reader.
A total of 34 peptides were tested for inhibition of lymphocyte proliferation in the human MLR. Each peptide was tested in a MLR at doses ranging from 12.5 to 100 μM. The activity of each peptide was identified by assigning a + and − tone peptide depending on its ability to inhibit lymphocyte proliferation in the MLR (cpms).

[2] = system: binding of CTLA-4Ig to B7 on Cess B cells; test: CTLA-4Ig/B7 binding assay on Cess B cells by FACS; conditions: FACS; assays of 3/24, 3/25, 4/5, 4/25; one symbol per assay
Method: +++ was assigned if the peptide tested gave >50% change in cpm in a dose dependent fashion. In addition to the MLR, these 34 peptides were also evaluated in a CTLA-4Ig/B7 binding assay in which the ability of these peptides to affect the binding of CTLA-4Ig to B7 on Cess B cells was examined by FACS analysis.
As with the MLR, a + or − was assigned to each peptide depending on its ability to effect CTLA-4Ig binding to Cess B cells; where − represents no change in binding, + represents a minor change of <10% in binding, and a ++ represents a change of >20% in binding.

[3] = system: primary peripheral blood lymphocytes (PBLs); test: Toxicity test on growing cell cultures; assay type: cell-based, human; conditions: 100 μM AT 199
Method: (§1) To determine if the activity of AT 199 was due to a specific effect on lymphocyte proliferation in the MLR or due to a non-specific inhibition of lymphocyte proliferation in general (i.e., toxicity), the toxicity of AT 199 was tested against THP-1, Jurkat, and resting and activated PBLs.
(§2) AT 199 and its control analogs were assayed for overt toxicity and non-specific inhibition. The peptides were added to growing cultures of THP-1 cells, Jurkat cells and primary peripheral blood lymphocytes (PBLs).

PHA activated PBLs = test: Mitogen (PHA) stimulation assay of PBL, 3H-Tdr incorporation; assay type: cell-based, human; conditions: for effect on PHA activation of PBLs / PHA stimulated T cells: in words
Method: For these assays, ficoll-hypaque purified PBMC (10^5 cells/well) were incubated in flat-bottom 96-well tissue culture plates with indicated concentrations or phytohemagglutinin (PHA; 5, 2.5, 1.25, 0.5 μg/ml) for 3 days at 37° C. in a humidified 5% CO2/air incubator. Cells were incubated in the presence or absence of various concentrations of CTLA-4 Ig, purified anti-CD80 mAb (1 μg/ml), anti-CD86 mAb (1 μg/ml), and peptides 199 and 201 serially diluted from 100 μM to 12.5 μM for the period of the assay.
Proliferation of the cells was determined by pulsing the wells with ^3H-Tdr (1 μCi/well) for the last 6 h of the assay. Plates were harvested using a Tomtec plate harvester and the counts incorporated determined using a Wallac microbetaplate plus reader.
AT 199 was tested for inhibition of PHA activated PBLs. PHA activation, while not specifically targeted at the CD28 pathway, has some dependence on this pathway depending on the concentration of PHA used to activate lymphocytes. To determine the […] of phytohemagglutinin (PHA) activation on CD28 signaling, CTLA-4Ig was included in each assay.
In order to test for an unanticipated mechanism of inhibition, AT 199 was assayed using PHA-stimulation of PBLs. Phytohemagglutinin (PHA) is a lectin extracted from the red kidney bean and is a mixture of five tetrameric glycoprotein. PHA stimulates T cells in the presence of accessory cells (but not B cells) by cross-linking a variety of critical T cell surface molecules, including CD3, CD2, CD4, CD8 and LFA-1 (Geppert, 1992). The involvement of CD28 in this stimulation is dependent on the degree of crosslinking by PHA. At the appropriate concentration of PHA, the simultaneous engagement of cell surface receptors results in a proliferation response that can bypass the need for specific costimulatory signals such as CD28. This can be monitored by examining CTLA-4Ig inhibition of PHA mitogenesis.

THP-1 cells = test: Toxicity test on growing cell cultures; assay type: cell-based; conditions: 100 μM AT 199
Method: as §1, §2

Jurkat cells = test: Toxicity test on growing cell cultures; assay type: cell-based; conditions: 100 μM AT 199
Method: as §1, §2

B7-1 = target: T1, B7-1 (Homo sapiens, UniProt P33681); conditions: CTLA-4Ig vs CD28Ig, higher affinity; cited from earlier work
T1 sequence (P33681 35-288): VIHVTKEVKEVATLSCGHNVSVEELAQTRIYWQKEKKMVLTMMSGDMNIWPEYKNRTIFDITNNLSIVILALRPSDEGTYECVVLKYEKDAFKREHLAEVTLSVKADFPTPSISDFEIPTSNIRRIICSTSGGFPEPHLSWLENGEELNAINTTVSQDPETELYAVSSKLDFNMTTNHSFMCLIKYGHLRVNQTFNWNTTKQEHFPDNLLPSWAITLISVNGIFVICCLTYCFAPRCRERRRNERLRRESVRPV

[4] = system: Th1-type cytokines and antigen specific T cells; conditions: delayed administration of the protein; cited from earlier work
[5] = system: murine MLR splenocyte proliferation; test: One-way murine MLR (C57Bl/6 stimulators, BalB/c responders); assay type: cell-based, mouse; conditions: 10 μg/ml CTLA-4Ig; stated as similar to AT 199.3
Method: One-way murine MLRs were set up using the C57Bl/6 mice splenocytes as stimulators and BalB/c splenocytes as responders.
Spleens were excised from mice (Jackson Laboratories, Bar Harbor, Ma.) 6-8 weeks of age. Cells were separated from the capsule using sterile frosted glass slides and washed in cold RPMI 1640 1×. Red blood cells were lysed by treating the spleen cell suspension with cold Tris ammonium chloride buffer (2 ml/spleen) for 3 min on ice. After lysis, the cells were washed 2× in 5 volumes of complete medium (RPMI 1640 containing 10 % heat-inactivated FBS, 2 mM glutamine, 50 μM 2-mercaptoethanol, 100 U/ml penicillin-100 μg/ml strepcomycin, 1 mM sodium pyruvate and 1 mM non-essential amino acids).
Plastic-adherent cells were removed from splenocytes of BalB/c mice by adjusting the cell concentration to 3×10^6 cells/ml in complete medium and incubating the cells for 1.5-2 h at 37° C. in T-75 flasks. Following incubation non-adherent cells were collected by gently washing the flasks and the percent recovery determined (60-70%). Bal b/C responder cells were stored on ice until mitomycin C treatment of stimulator cells was completed.
Following RBC lysis splenocytes of C57Bl/6 mice were adjusted to 2-4×10^6 cells/ml in complete medium and treated with mitomycin C (50 μg/ml) for 30 min at 37° C. in a humidified 5% CO2 in air atmosphere. Following treatment, cells were washed with 5 volumes of complete medium 3×, and viable counts determined using trypan blue.
To set up autologous stimulation controls some responder cells were also treated with mitomycin C as mentioned above.
For the assay, responder and stimulator cells were plated at 10^5 cells/well in 96-well round bottom plates. […]
Appropriate scrambled peptide controls and matrix controls were included in every assay. […] Proliferation of the cells was determined by pulsing the wells with 3H-Tdr (1 μCi/well) For the last 6 h of the assay. Plates were harvested and the counts incorporated determined as described above.

Compound	IC50 [1] [µM]	Human MLR (ability to inhibit lymphocyte proliferation, cpm) ([1]; peptide 12.5 to 100 μM, assays of 1/24, 1/31, 3/6, 4/17, 5/2, one symbol per assay)	human MLR assays in which the peptide was active ([1]; total of 6 human MLR assays)	Binding Assay (effect on CTLA-4Ig binding to Cess B cells) [2]	inhibition / effect on growth of resting primary PBLs [3]	effect on PHA activation of PBLs / PHA stimulated T cells (PHA activated PBLs)	inhibition / effect on growth of THP-1 cells (THP-1 cells)	inhibition / effect on growth of Jurkat cells (Jurkat cells)	inhibition of PHA activation (PHA activated PBLs; 10 μg/ml CTLA-4Ig, PHA 2.5 and 5 μg/ml (FIG. 11))	affinity for B7-1 relative to CD28Ig (B7-1)	blunted expansion of antigen specific T cells [4] [%]	reduction in Th1-type cytokines [4]	inhibition of the murine MLR [5] [%]
CSCC[C@@H]1NC(=O)[C@H](CC(C)C)NC(=O)[C@@H](NC(=O)[C@H](CCCCN)NC(=O)[C@@H](N)CCCNC(=N)N)CSSC[C@@H](C(=O)N[C@@H](Cc2c[nH]cn2)C(=O)N[C@@H](Cc2c[nH]cn2)C(N)=O)NC(=O)[C@H](Cc2ccc(O)cc2)NC(=O)[C@H](Cc2ccc(O)cc2)NC(=O)[C@@H]2CCCN2C(=O)[C@@H]2CCCN2C(=O)[C@@H]2CCCN2C(=O)[C@H](Cc2ccc(O)cc2)NC1=O [AT 199.1, RKCLMYPPPYYCHH] (HELM PEPTIDE1{R.K.C.L.M.Y.P.P.P.Y.Y.C.H.H.[am]}$PEPTIDE1,PEPTIDE1,3:R3-12:R3$$$V2.0; N-terminus assumed)	50 to 100	+, +, +	5 out of 6	+, +, +	no inhibition; also recorded: No effect	only a minor effect; also recorded: did not inhibit	no inhibition; also recorded: No effect	no inhibition; also recorded: No effect	–	–	–	–	–
CTLA-4Ig: Purified CTLA-4Ig fusion protein (murine) produced from a NS-1 cell line as in Steurer et al. 1995	–	–	–	–	–	inhibited PHA activation slightly	–	–	40-50%	20-100 fold	50	80-90%	~85
